Values after ≈ are worked out from the molar mass of the structure shown.
Experiments:
apoptosis = conditions: reference 21; cited from earlier work
[1] = target: ATP binding sites of Pyk2 (Homo sapiens, UniProt Q14289); conditions: cited from earlier work
[2] = system: OSCC migration and invasion; conditions: cited from earlier work
[3] = 4-HPR release from PLGA implants, tumor and sera levels (UPLC/UV); format: in vivo, nude mice
From the text: Determination of 4-HPR tumor levels entailed recording tumor wet mass, addition of internal standard (acitretin) and RIPA lysis buffer, followed by homogenization, addition of acetonitrile and centrifugation. Acetretin percent recovery was compared to a RIPA buffer/acetonitrile extraction control solution spiked with equivalent amount of acetretin and 4-HPR. Sera preparation entailed addition of acetretin and acetonitrile, sonication, followed by centrifugation.
SCC2095sc cells [10^6 cells suspended in 100 μl Matrigel (Corning Life Sciences, Corning, N.Y.)] were subcutaneously injected in the flanks of 6 week old male nude mice (n=6 per treatment group). Tumor measurements were recorded daily with calipers (greatest length and greatest width) and final tumor volumes calculated via tumor volume V=(length×width)×½. Treatment groups consisted of: 1) control (PBS injections)+blank (no drug) PLGA implants, 2) 2-ME (1 μg/100 μl PBS, b.i.d.)+blank PLGA implant, 3) 4-HPR releasing PLGA implant+PBS injections, 4) TOC q.d. (0.3 μg/100 μl PBS)+PLGA blank implant, 5) 2-ME (1 μg/100 μl PBS, b.i.d.)+4-HPR releasing PLGA implant, 6) 2-ME (1 μg/100 μl PBS, b.i.d.)+TOC q.d. (0.3 μg/100 μl PBS)+blank PLGA implant, 7) TOC q.d. (0.3 μg/100 μl PBS)+4-HPR releasing PLGA implant, 8) 2-ME (1 μg/100 μl PBS, b.i.d.)+TOC q.d. (0.3 μg/100 μl PBS)+4-HPR releasing PLGA implant. By day 14 post injection, all mice had measurable tumors and treatment began on day 15. […] Pretreatment mean tumor volumes therefore varied among treatment groups. PLGA implants (via trocar) and injections were placed in the center of the tumor. At day 28 post OSCC xenograft placement final tumor measurements were obtained, the mice were euthanized and OSCC tumors along with lung, liver and sera were harvested for pharmacokinetic, histologic and IHC analyses (Ki-67, cleaved caspase-3 and involucrin). Image analyses of the nuclear stains (Ki-67 and cleaved caspase 3) were conducted using Image-Pro Plus 6.2 software (Media Cybernetics, Rockville, Md.).

IL-6 = IL-6 release from OSCC cells (ELISA); format: cell-based, human; conditions: 5 μM, fresh treatment q.d., base medium, 48 h
Method: Conditioned media from 24-hour sera-deprived JSCC-1, JSCC-2 and JSCC3 cells were analyzed using the Proteome Profiler Human Cytokine XL Array (R&D Systems, Minneapolis, Minn.), with image capture and analyses via the Li-Cor Odyssey imager and Image Studio software (Li-Cor Biosciences, Lincoln, Nebr.). Sera-free conditioned media for IL-6, VEGF, TGF-α and EGF were analyzed by ELISAs (R&D Systems, Minneapolis, Minn.), with data expressed as pg/10^6 cells.
) 0.01% DMSO (vehicle control), 2) 5 μM 4-HPR, 3) 2.5 μM 2-ME, 4) 1 μg/ml tocilizumab (TOC, […]) 5) 5 μM 4-HPR+2.5 μM 2-ME, 6) 5 μM 4-HPR+1 μg/ml TOC, 7) 2.5 μM 2-ME+1 μg/ml TOC, 8) 5 μM 4-HPR+2.5 μM 2-ME+1 μg/ml TOC. Following treatment, conditioned media were collected (ELISAs for IL-6, sIL-6R, TGF-α, VEGF, EGF, R&D Systems, Minneapolis, Minn.) and nuclear and cytosolic lysates (Nuclear Extract Kit, Active Motif, Carlsbad, Calif.) isolated for EMSAs (STAT3, NFκB p50 and p65, TransAM Transcription Factor ELISAs, Active Motif) and cytosolic and nuclear extracts for Westerns (NE-PER Nuclear and Cytoplasmic Extraction Reagents, ThermoFisher Scientific, Waltham Mass.). […]

Fenretinide solubility = format: physicochemical
[4] = cited from earlier work

Sequence of ATP binding sites of Pyk2 (Q14289 whole entry): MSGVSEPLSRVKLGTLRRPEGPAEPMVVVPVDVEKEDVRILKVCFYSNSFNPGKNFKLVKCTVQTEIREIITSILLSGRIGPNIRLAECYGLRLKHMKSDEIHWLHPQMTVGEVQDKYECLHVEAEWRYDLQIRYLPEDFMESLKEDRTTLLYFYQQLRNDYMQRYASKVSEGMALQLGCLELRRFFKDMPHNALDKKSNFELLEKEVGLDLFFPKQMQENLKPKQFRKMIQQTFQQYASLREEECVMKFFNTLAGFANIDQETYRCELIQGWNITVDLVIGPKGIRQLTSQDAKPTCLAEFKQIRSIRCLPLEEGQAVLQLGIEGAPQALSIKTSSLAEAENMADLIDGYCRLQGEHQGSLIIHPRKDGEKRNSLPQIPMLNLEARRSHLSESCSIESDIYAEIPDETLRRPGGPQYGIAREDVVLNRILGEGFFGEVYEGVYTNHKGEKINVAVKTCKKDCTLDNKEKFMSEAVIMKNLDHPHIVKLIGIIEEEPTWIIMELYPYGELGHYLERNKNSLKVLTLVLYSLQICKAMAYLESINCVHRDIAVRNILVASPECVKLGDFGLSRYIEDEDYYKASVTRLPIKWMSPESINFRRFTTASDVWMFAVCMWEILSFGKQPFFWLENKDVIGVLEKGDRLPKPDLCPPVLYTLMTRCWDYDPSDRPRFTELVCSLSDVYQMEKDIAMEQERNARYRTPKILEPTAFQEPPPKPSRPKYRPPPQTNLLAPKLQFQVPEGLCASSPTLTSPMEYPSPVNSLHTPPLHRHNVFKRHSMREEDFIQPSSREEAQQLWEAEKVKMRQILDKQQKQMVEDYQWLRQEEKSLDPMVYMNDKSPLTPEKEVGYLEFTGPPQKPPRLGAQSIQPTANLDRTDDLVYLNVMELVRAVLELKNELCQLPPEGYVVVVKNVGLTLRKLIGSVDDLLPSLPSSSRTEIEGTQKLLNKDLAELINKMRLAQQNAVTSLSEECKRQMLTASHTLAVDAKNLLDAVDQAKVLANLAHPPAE

For `CC1=C(/C=C/C(C)=C/C=C/C(C)=C/C(=O)Nc2ccc(O)cc2)C(C)(C)CCC1` [4-HPR, 4-hydroxy(phenyl)retinamide], the apoptosis-inducing concentration (apoptosis) is listed as 10 µM, the “binding to ATP binding site” value [1] is listed as “binds with high affinity” and the “OSCC migration and invasion” value [2] is listed as “significantly inhibits”. The “detectable levels in the sera” value ([3]; 4-HPR or its metabolites, any animals) was “absence of any detectable levels”, the concentration at 28 days post xenograft placement (treatment began on day 15) ([3]; male, nude, mouse, serum, all mice that received PLGA implants, below LLOQ) was < 50 ng/mL and the “increase of IL-6 release” value (IL-6; JSCC1 cells) was ~50%. The “increase of IL-6 release” value (IL-6; JSCC2 cells) was ~20%, the water solubility (Fenretinide solubility) was “below HPLC detection limit” and the solubility (Fenretinide solubility; PBS+0.084% Tween 80, same as in bovine serum) was 21 µg/mL (≈ 53.6 µM). For the same molecule, the “log P” value [4] was 8.03.

From patent US11484591B2, “Chemoprevention using controlled-release formulations of anti-interleukin 6 agents, synthetic vitamin A analogues or metabolites, and estradiol metabolites” (OHIO STATE INNOVATION FOUNDATION, priority 2016, dated 2022)
